Laboratory results as given in patent US6626122B2, “Deactivatable biocides in ballast water” (Chevron U.S.A. Inc, priority 2001, dated 2003).
Read-outs that look alike come from different tables or passages of the source.

What was measured:
bacterial inoculum [1] = type: cell-based; conditions: for Growth, nitrogen compound control: control without glutaraldehyde; for Growth, nitrogen compound control / Growth, Neutralization of Biocides with Nitrogen Compounds: n-C16; for neutralizing 10 ppm of glutaraldehyde: two moles per glutaraldehyde; for Growth, Neutralization of Biocides with Nitrogen Compounds: with 10 ppm glutaraldehyde, two moles nitrogen compound per glutaraldehyde
Source text: The different nitrogen-containing compounds evaluated include the following: […]

bacteria = assay: Neutralization of biocides - H2O2 and NH4Cl; type: cell-based; conditions: for microbial growth: after 14 days, 1, 10 or 100 ppm glutaraldehyde mixed with five times molar excess of the agent; for neutralizing biocides (glutaraldehyde): five times molar excess over 1, 10 or 100 ppm glutaraldehyde
Method: In this experiment, minimal medium containing 1, 10 or 100 ppm of glutaraldehyde was mixed with a five times molar excess of H2O2 or NH4Cl. Hydrocarbonaceous product and bacteria were then added to the mixture.

bacterial inoculum [2] = assay: Evaluation of biocides: inhibition of growth on FT diesel and ALAD diesel; type: cell-based, alkane degrading organisms; also: key: −: No Growth; +: Growth (White Unless Otherwise Indicated)
Method: The ability of biocides to inhibit growth on a FT diesel and a low aromatics diesel fuel from Example 1 was investigated.
Test Conditions: 90 ml of growth media and 10 ml of either FT diesel or low sulfur (ALAD) diesel was added to 250 ml flasks. […] In addition to the 2 alkynes, glutaraldehyde (glutaric dialdehyde 50%), was tested. The following summarizes the test conditions:
100 ppm inhibitor (on a total test volume basis or 1000 ppm in diesel)
1% inhibitor (on a total test volume basis or 10% in diesel).
After inoculation, the flasks were place on a shaker-table (135 rpm) at room temperature and observed daily.

in vivo = conditions: Cyprinodon variegatus (sheepshead minnow, larval), 96 h, control experiment, separate compounds
Method: (§1) […]. EPA/600/4-90/027F Washington, D.C.) conducted at Pacific Eco-Risk Laboratories, Martinez, Calif.
(§2) LOEC is the Lowest Observable Effect Concentration and is defined as the minimum concentration where mortality is observed for the test species. […] LC-50, the concentration that will cause mortality of 50% of the organisms tested within 96 h, is a calculated value based on all observations.
(§3) The solutions were mixed for 48 hours prior to the start of the bioassays. The solutions were diluted to perform bioassays at starting glutaraldehyde concentrations of 100, 50, 37.5, 25, and 10.5 mg/L. The results are summarized in Table X.

[3] = test system: Larval Sheepshead Minnow (Cyprinodon variegatus); assay: in vivo; conditions: Cyprinodon variegatus (sheepshead minnow), 96 h
Method: as §1, §2, §3

[4] = FT Diesel + 1 Wt % biocide, Day 0
[5] = FT Diesel + 1 Wt % biocide, Day 1
[6] = FT Diesel + 1 Wt % biocide, Day 5
[7] = FT Diesel + 1 Wt % biocide, Day 7
[8] = FT Diesel + 1 Wt % biocide, Day 8
[9] = FT Diesel + 1 Wt % biocide, Day 19
[10] = FT Diesel + 100 ppm biocide, Day 0
[11] = FT Diesel + 100 ppm biocide, Day 1
[12] = FT Diesel + 100 ppm biocide, Day 5
[13] = FT Diesel + 100 ppm biocide, Day 7
[14] = FT Diesel + 100 ppm biocide, Day 8
[15] = FT Diesel + 100 ppm biocide, Day 19
[16] = LA Diesel + 1 Wt % biocide, Day 0
[17] = LA Diesel + 1 Wt % biocide, Day 1
[18] = LA Diesel + 1 Wt % biocide, Day 5
[19] = LA Diesel + 1 Wt % biocide, Day 7
[20] = LA Diesel + 1 Wt % biocide, Day 8
[21] = LA Diesel + 1 Wt % biocide, Day 19
[22] = LA Diesel + 100 ppm biocide, Day 0
[23] = LA Diesel + 100 ppm biocide, Day 1
[24] = LA Diesel + 100 ppm biocide, Day 5
[25] = LA Diesel + 100 ppm biocide, Day 7
[26] = LA Diesel + 100 ppm biocide, Day 8
[27] = LA Diesel + 100 ppm biocide, Day 19

OCCNCCO [DEA, Diethanolamine]
+: Growth, nitrogen compound control (bacterial inoculum [1]; Time 6 days) | Growth, nitrogen compound control (bacterial inoculum [1]; Time 7 days) | Growth, nitrogen compound control (bacterial inoculum [1]; Time 9 days) | Growth, nitrogen compound control (bacterial inoculum [1]; Time 13 days) | Growth, Neutralization of Biocides with Nitrogen Compounds (bacterial inoculum [1]; Time 1 days) | Growth, Neutralization of Biocides with Nitrogen Compounds (bacterial inoculum [1]; Time 2 days) | Growth, Neutralization of Biocides with Nitrogen Compounds (bacterial inoculum [1]; Time 6 days) | Growth, Neutralization of Biocides with Nitrogen Compounds (bacterial inoculum [1]; Time 7 days) | Growth, Neutralization of Biocides with Nitrogen Compounds (bacterial inoculum [1]; Time 9 days) | Growth, Neutralization of Biocides with Nitrogen Compounds (bacterial inoculum [1]; Time 13 days) | Growth, Neutralization of Biocides with Nitrogen Compounds (bacterial inoculum [1]; Time 20 days)
effective: neutralizing 10 ppm of glutaraldehyde (bacterial inoculum [1])
−: Growth, nitrogen compound control (bacterial inoculum [1]; Time 0 days) | Growth, nitrogen compound control (bacterial inoculum [1]; Time 1 days) | Growth, nitrogen compound control (bacterial inoculum [1]; Time 2 days) | Growth, nitrogen compound control (bacterial inoculum [1]; Time 20 days) | Growth, Neutralization of Biocides with Nitrogen Compounds (bacterial inoculum [1]; Time 0 days)

OO [H2O2]
not effective: neutralizing biocides (glutaraldehyde) (bacteria)
no growth: microbial growth (bacteria)

C#CCCCC [H, 1-hexyne]
+: Growth, Test Results on Fischer-Tropsch Diesel Fuel (bacterial inoculum [2]; [12]) | Growth, Test Results on Fischer-Tropsch Diesel Fuel (bacterial inoculum [2]; [13]) | Growth, Test Results on Fischer-Tropsch Diesel Fuel (bacterial inoculum [2]; [14]) | Growth, Test Results on Fischer-Tropsch Diesel Fuel (bacterial inoculum [2]; [15]) | Growth, Test Results on ALAD Diesel Fuel (bacterial inoculum [2]; [24]) | Growth, Test Results on ALAD Diesel Fuel (bacterial inoculum [2]; [25]) | Growth, Test Results on ALAD Diesel Fuel (bacterial inoculum [2]; [26]) | Growth, Test Results on ALAD Diesel Fuel (bacterial inoculum [2]; [27])
−: Growth, Test Results on Fischer-Tropsch Diesel Fuel (bacterial inoculum [2]; [4]) | Growth, Test Results on Fischer-Tropsch Diesel Fuel (bacterial inoculum [2]; [5]) | Growth, Test Results on Fischer-Tropsch Diesel Fuel (bacterial inoculum [2]; [6]) | Growth, Test Results on Fischer-Tropsch Diesel Fuel (bacterial inoculum [2]; [7]) | Growth, Test Results on Fischer-Tropsch Diesel Fuel (bacterial inoculum [2]; [8]) | Growth, Test Results on Fischer-Tropsch Diesel Fuel (bacterial inoculum [2]; [9]) | Growth, Test Results on Fischer-Tropsch Diesel Fuel (bacterial inoculum [2]; [10]) | Growth, Test Results on Fischer-Tropsch Diesel Fuel (bacterial inoculum [2]; [11]) | Growth, Test Results on ALAD Diesel Fuel (bacterial inoculum [2]; [16]) | Growth, Test Results on ALAD Diesel Fuel (bacterial inoculum [2]; [17]) | Growth, Test Results on ALAD Diesel Fuel (bacterial inoculum [2]; [18]) | Growth, Test Results on ALAD Diesel Fuel (bacterial inoculum [2]; [19]) | Growth, Test Results on ALAD Diesel Fuel (bacterial inoculum [2]; [20]) | Growth, Test Results on ALAD Diesel Fuel (bacterial inoculum [2]; [21]) | Growth, Test Results on ALAD Diesel Fuel (bacterial inoculum [2]; [22]) | Growth, Test Results on ALAD Diesel Fuel (bacterial inoculum [2]; [23])

NCCO [MEA, Monoethanolamine]
1500 µg/mL: LC50 at 96 h (in vivo)
effective: neutralizing 10 ppm of glutaraldehyde (bacterial inoculum [1])
+: Growth, nitrogen compound control (bacterial inoculum [1]; Time 7 days) | Growth, nitrogen compound control (bacterial inoculum [1]; Time 9 days) | Growth, nitrogen compound control (bacterial inoculum [1]; Time 13 days) | Growth, nitrogen compound control (bacterial inoculum [1]; Time 20 days) | Growth, Neutralization of Biocides with Nitrogen Compounds (bacterial inoculum [1]; Time 6 days) | Growth, Neutralization of Biocides with Nitrogen Compounds (bacterial inoculum [1]; Time 7 days) | Growth, Neutralization of Biocides with Nitrogen Compounds (bacterial inoculum [1]; Time 9 days) | Growth, Neutralization of Biocides with Nitrogen Compounds (bacterial inoculum [1]; Time 13 days) | Growth, Neutralization of Biocides with Nitrogen Compounds (bacterial inoculum [1]; Time 20 days)
1700 mg/L: LOEC [3]
−: Growth, nitrogen compound control (bacterial inoculum [1]; Time 0 days) | Growth, nitrogen compound control (bacterial inoculum [1]; Time 1 days) | Growth, nitrogen compound control (bacterial inoculum [1]; Time 2 days) | Growth, nitrogen compound control (bacterial inoculum [1]; Time 6 days) | Growth, Neutralization of Biocides with Nitrogen Compounds (bacterial inoculum [1]; Time 0 days) | Growth, Neutralization of Biocides with Nitrogen Compounds (bacterial inoculum [1]; Time 1 days) | Growth, Neutralization of Biocides with Nitrogen Compounds (bacterial inoculum [1]; Time 2 days)
1000 mg/L: NOEC [3]

Cl.N [NH4Cl]
no growth: microbial growth (bacteria)
not effective: neutralizing biocides (glutaraldehyde) (bacteria)

C#CCO [P, Propargyl alcohol]
+: Growth, Test Results on Fischer-Tropsch Diesel Fuel (bacterial inoculum [2]; [13]) | Growth, Test Results on Fischer-Tropsch Diesel Fuel (bacterial inoculum [2]; [14]) | Growth, Test Results on Fischer-Tropsch Diesel Fuel (bacterial inoculum [2]; [15])
+ Yellow: Growth, Test Results on ALAD Diesel Fuel (bacterial inoculum [2]; [24]) | Growth, Test Results on ALAD Diesel Fuel (bacterial inoculum [2]; [25]) | Growth, Test Results on ALAD Diesel Fuel (bacterial inoculum [2]; [26]) | Growth, Test Results on ALAD Diesel Fuel (bacterial inoculum [2]; [27])
−: Growth, Test Results on Fischer-Tropsch Diesel Fuel (bacterial inoculum [2]; [4]) | Growth, Test Results on Fischer-Tropsch Diesel Fuel (bacterial inoculum [2]; [5]) | Growth, Test Results on Fischer-Tropsch Diesel Fuel (bacterial inoculum [2]; [6]) | Growth, Test Results on Fischer-Tropsch Diesel Fuel (bacterial inoculum [2]; [7]) | Growth, Test Results on Fischer-Tropsch Diesel Fuel (bacterial inoculum [2]; [8]) | Growth, Test Results on Fischer-Tropsch Diesel Fuel (bacterial inoculum [2]; [9]) | Growth, Test Results on Fischer-Tropsch Diesel Fuel (bacterial inoculum [2]; [10]) | Growth, Test Results on Fischer-Tropsch Diesel Fuel (bacterial inoculum [2]; [11]) | Growth, Test Results on Fischer-Tropsch Diesel Fuel (bacterial inoculum [2]; [12]) | Growth, Test Results on ALAD Diesel Fuel (bacterial inoculum [2]; [16]) | Growth, Test Results on ALAD Diesel Fuel (bacterial inoculum [2]; [17]) | Growth, Test Results on ALAD Diesel Fuel (bacterial inoculum [2]; [18]) | Growth, Test Results on ALAD Diesel Fuel (bacterial inoculum [2]; [19]) | Growth, Test Results on ALAD Diesel Fuel (bacterial inoculum [2]; [20]) | Growth, Test Results on ALAD Diesel Fuel (bacterial inoculum [2]; [21]) | Growth, Test Results on ALAD Diesel Fuel (bacterial inoculum [2]; [22]) | Growth, Test Results on ALAD Diesel Fuel (bacterial inoculum [2]; [23])

Nc1ccccc1 [aniline, Aniline]
excessively toxic: toxicity of the nitrogen-containing compound itself (microbial growth) (bacterial inoculum [1])
−: Growth, nitrogen compound control (bacterial inoculum [1]; Time 0 days) | Growth, nitrogen compound control (bacterial inoculum [1]; Time 1 days) | Growth, nitrogen compound control (bacterial inoculum [1]; Time 2 days) | Growth, nitrogen compound control (bacterial inoculum [1]; Time 6 days) | Growth, nitrogen compound control (bacterial inoculum [1]; Time 7 days) | Growth, nitrogen compound control (bacterial inoculum [1]; Time 9 days) | Growth, nitrogen compound control (bacterial inoculum [1]; Time 13 days) | Growth, nitrogen compound control (bacterial inoculum [1]; Time 20 days) | Growth, Neutralization of Biocides with Nitrogen Compounds (bacterial inoculum [1]; Time 0 days) | Growth, Neutralization of Biocides with Nitrogen Compounds (bacterial inoculum [1]; Time 1 days) | Growth, Neutralization of Biocides with Nitrogen Compounds (bacterial inoculum [1]; Time 2 days) | Growth, Neutralization of Biocides with Nitrogen Compounds (bacterial inoculum [1]; Time 6 days) | Growth, Neutralization of Biocides with Nitrogen Compounds (bacterial inoculum [1]; Time 7 days) | Growth, Neutralization of Biocides with Nitrogen Compounds (bacterial inoculum [1]; Time 9 days) | Growth, Neutralization of Biocides with Nitrogen Compounds (bacterial inoculum [1]; Time 13 days) | Growth, Neutralization of Biocides with Nitrogen Compounds (bacterial inoculum [1]; Time 20 days)

CCNCC [diethylamine, Diethylamine]
−: Growth, nitrogen compound control (bacterial inoculum [1]; Time 0 days) | Growth, nitrogen compound control (bacterial inoculum [1]; Time 1 days) | Growth, nitrogen compound control (bacterial inoculum [1]; Time 2 days) | Growth, Neutralization of Biocides with Nitrogen Compounds (bacterial inoculum [1]; Time 0 days) | Growth, Neutralization of Biocides with Nitrogen Compounds (bacterial inoculum [1]; Time 1 days) | Growth, Neutralization of Biocides with Nitrogen Compounds (bacterial inoculum [1]; Time 2 days)
+: Growth, nitrogen compound control (bacterial inoculum [1]; Time 6 days) | Growth, nitrogen compound control (bacterial inoculum [1]; Time 7 days) | Growth, nitrogen compound control (bacterial inoculum [1]; Time 9 days) | Growth, nitrogen compound control (bacterial inoculum [1]; Time 13 days) | Growth, nitrogen compound control (bacterial inoculum [1]; Time 20 days) | Growth, Neutralization of Biocides with Nitrogen Compounds (bacterial inoculum [1]; Time 6 days) | Growth, Neutralization of Biocides with Nitrogen Compounds (bacterial inoculum [1]; Time 7 days) | Growth, Neutralization of Biocides with Nitrogen Compounds (bacterial inoculum [1]; Time 9 days) | Growth, Neutralization of Biocides with Nitrogen Compounds (bacterial inoculum [1]; Time 13 days) | Growth, Neutralization of Biocides with Nitrogen Compounds (bacterial inoculum [1]; Time 20 days)
effective: neutralizing 10 ppm of glutaraldehyde (bacterial inoculum [1])
